According to US4113946A, “Δ^2,3 -1,4-Morpholine-2-carboxylic acid derivatives as antibacterial agents” (Bristol-Myers Company, priority 1977, dated 1978):
Converted amounts (≈) assume the structure as drawn. Where a name gives a salt, the structure may show the parent alone. Read-outs that look alike come from different tables or passages of the source.

Tests used:
[1] = system: Pr. mirabilis A9900; assay: M.I.C. by tube dilution, Pr. mirabilis A9900; assay type: cell-based; conditions: Proteus mirabilis
[2] = system: S. aureus Smith A9537; assay: M.I.C. by tube dilution, S. aureus Smith A9537; assay type: cell-based; conditions: Staphylococcus aureus
[3] = system: Ent. cloacae A9656; assay: M.I.C. by tube dilution, Ent. cloacae A9656; assay type: cell-based; conditions: Enterobacter cloacae
[4] = system: Ps. aeruginosa A9843A; assay: microbe, parasite or virus in culture; assay type: cell-based; conditions: Pseudomonas aeruginosa
[5] = system: Str. pyogenes A9604; assay: M.I.C. by tube dilution, Str. pyogenes A9604; assay type: cell-based; conditions: Streptococcus pyogenes, +5% serum, 50% Nutrient Broth - 45% Antibiotic Assay Broth, overnight 37° C., read-out: M.I.C.
[6] = system: Ent. cloacae A9659; assay: M.I.C. by tube dilution, Ent. cloacae A9659; assay type: cell-based; conditions: Enterobacter cloacae, A9659, overnight 37° C.
[7] = system: S. aureus meth.-resist; A15097; assay: M.I.C. by tube dilution, S. aureus meth.-resist A15097; assay type: cell-based; conditions: Staphylococcus aureus, at 10^-3 dil'n, overnight 37° C.
[8] = system: K. pneumoniae A9977; assay: M.I.C. by tube dilution, K. pneumoniae A9977; assay type: cell-based; conditions: Klebsiella pneumoniae
[9] = system: Pr. morganii A15153; assay: M.I.C. by tube dilution, Pr. morganii A15153; assay type: cell-based; conditions: Morganella morganii
[10] = system: Sal. enteritidis A9531; assay: M.I.C. by tube dilution, Sal. enteritidis A9531; assay type: cell-based; conditions: Salmonella enterica, ENTERITIDIS
[11] = system: K. pneumoniae A15130; assay: M.I.C. by tube dilution, K. pneumoniae A15130; assay type: cell-based; conditions: Klebsiella pneumoniae
[12] = system: E. coli Juhl A15119; assay: M.I.C. by tube dilution, E. coli Juhl A15119; assay type: cell-based; conditions: Escherichia coli, JUHLA15119
[13] = system: E. coli A9675; assay: M.I.C. by tube dilution, E. coli A9675; assay type: cell-based; conditions: Escherichia coli
[14] = system: Ent. cloacae A9657; assay: M.I.C. by tube dilution, Ent. cloacae A9657; assay type: cell-based; conditions: Enterobacter cloacae
[15] = system: D. pneumoniae A9585; assay: M.I.C. by tube dilution, D. pneumoniae A9585; assay type: cell-based; conditions: Streptococcus pneumoniae, A9585
[16] = system: Ser. marcescens A20019; assay: M.I.C. by tube dilution, Ser. marcescens A20019; assay type: cell-based; conditions: Serratia marcescens
[17] = system: S. aureus BX1633-2 A9606; assay: M.I.C. by tube dilution, S. aureus BX1633-2 A9606; assay type: cell-based; conditions: overnight 37° C.; for MIC: Staphylococcus aureus
[18] = system: St. pyrogenes; assay: Inhibition of St. pyrogenes; assay type: cell-based; conditions: read-out: found to inhibit St. pyrogenes at a concentration of
[19] = in vivo; conditions: mouse, po, 100 mg/kg
[20] = SMITHA9537, +50% serum, at 10^-4 dilution, overnight 37° C.
[21] = SMITHA9537, at 10^-4 dilution, overnight 37° C., read-out: M.I.C.
[22] = overnight 37° C., read-out: M.I.C.
[23] = at 10^-4 dilution, overnight 37° C., read-out: M.I.C.
[24] = A9657, overnight 37° C., read-out: M.I.C.
[25] = +5% serum, 50% Nutrient Broth - 45% Antibiotic Assay Broth, overnight 37° C., read-out: M.I.C.
[26] = SMITHA9537, at 10^-4 dilution, overnight 37° C.
[27] = BX16332A9606, at 10^-2 dil'n, read-out: M.I.C.

Compound | MIC [1] | MIC [2, 20] | MIC [2, 21] | MIC [4] | MIC [5] | MIC [7] | MIC [8] | MIC [9, 23] | MIC [10] | MIC [12, 23] | MIC [14, 24] | MIC [15, 25] | MIC ([17]; BX16332A9606, at 10^-2 dil'n) | MIC ([17]; BX16332A9606, at 10^-3 dil'n) | MIC [3] | MIC [6] | MIC [11] | MIC [13] | MIC ([14]; A9657) | MIC [16] | other results
CC1=C(C(=O)O)N2C(=O)[C@@H](NC(=O)COc3ccccc3)[C@H]2CO1 (relative stereo) [BC-L8, 7β-phenoxyacetamido-3-methyl-O-2-isocephem-4-carboxylic acid] | 16 µg/mL (≈ 48.1 µM) | 2 µg/mL (≈ 6.02 µM) | 0.5 µg/mL (≈ 1.5 µM) | 500 µg/mL (≈ 1500 µM) | 0.5 µg/mL (≈ 1.5 µM) | 32 µg/mL (≈ 96.3 µM) | 32 µg/mL (≈ 96.3 µM) | 500 µg/mL (≈ 1500 µM) | 8 µg/mL (≈ 24.1 µM) | 63 µg/mL (≈ 190 µM) | 63 µg/mL (≈ 190 µM) | 0.5 µg/mL (≈ 1.5 µM) | 32 µg/mL (≈ 96.3 µM) | 2 µg/mL (≈ 6.02 µM) |  |  |  |  |  |  | MIC [3, 22]: 500 µg/mL (≈ 1500 µM); MIC ([6]; read-out: M.I.C.): 500 µg/mL (≈ 1500 µM); MIC [11, 23]: 500 µg/mL (≈ 1500 µM); MIC [13, 23]: 250 µg/mL (≈ 752 µM); MIC [16, 23]: 500 µg/mL (≈ 1500 µM)
COC(=O)CC1=C(C(=O)O)N2C(=O)[C@@H](NC(=O)COc3ccccc3)[C@H]2CO1 (relative stereo) [BC-L33, 7β-Phenoxyacetamido-3-carbomethoxymethylene-Δ^3 -O-2-isocephem-4-carboxylic acid] | 32 µg/mL (≈ 82 µM) | 1 µg/mL (≈ 2.56 µM) | 0.25 µg/mL (≈ 0.64 µM) | > 125 µg/mL | 0.06 µg/mL (≈ 0.154 µM) | > 125 µg/mL |  |  | 8 µg/mL (≈ 20.5 µM) |  |  | 0.06 µg/mL (≈ 0.154 µM) | > 125 µg/mL | 16 µg/mL (≈ 41 µM) | > 125 µg/mL | > 125 µg/mL | > 125 µg/mL | > 125 µg/mL | > 125 µg/mL | > 125 µg/mL | MIC [8, 23]: 63 µg/mL (≈ 161 µM); MIC [9]: > 125 µg/mL; MIC [12]: 125 µg/mL (≈ 320 µM)
CC1=C(C(=O)O)N2C(=O)[C@@H](N)[C@H]2CO1 (relative stereo) [BC-L61, 7β-Amino-3-methyl-Δ^3 -O-2-isocephem-4-carboxylic acid] |  |  |  |  |  |  |  |  |  |  |  |  |  |  |  |  |  |  |  |  | MIC ([2]; SMITHA9537, read-out: found to inhibit S. aureus A9537 at a concentration of): > 125 µg/mL; MIC ([12]; read-out: found to inhibit E. coli A15119 at a concentration of): > 125 µg/mL; MIC ([15]; read-out: found to inhibit D. pneumoniae A9585 at a concentration of): > 8 µg/mL; MIC [18]: > 8 µg/mL
CC1=C(C(=O)O)N2C(=O)[C@@H](NC(=O)[C@H](N)c3ccccc3)[C@H]2CO1 [BC-L9, 7β-(D-α-aminophenylacetamido)-3-methyl-Δ^3 -O-2-isocephem-4-carboxylic acid hydrochloride] |  | 16 µg/mL |  | > 500 µg/mL | 0.5 µg/mL | 32 µg/mL | 16 µg/mL | 250 µg/mL | 16 µg/mL |  |  | 0.5 µg/mL | 32 µg/mL | 8 µg/mL |  | 125 µg/mL |  |  | 32 µg/mL |  | MIC [1, 23]: 63 µg/mL; MIC [2, 26]: 2 µg/mL; MIC [3, 22]: 500 µg/mL; MIC [11, 23]: 63 µg/mL; MIC [12]: 32 µg/mL; MIC [13, 23]: 63 µg/mL; MIC [16, 23]: 500 µg/mL
O=C(COc1ccccc1)NC1C(=O)N2C(C(=O)O)=C(Cc3ccccc3)OCC12 (stereo not drawn) [BC-L17, 7β-phenoxyacetamido-3-benzyl-Δ^3 -O-2-isocephem-4-carboxylic acid] | > 125 µg/mL | 1 µg/mL (≈ 2.45 µM) | 0.25 µg/mL (≈ 0.612 µM) | > 125 µg/mL | 0.25 µg/mL (≈ 0.612 µM) | 125 µg/mL (≈ 306 µM) | > 125 µg/mL |  | 32 µg/mL (≈ 78.4 µM) |  |  | 0.25 µg/mL (≈ 0.612 µM) | > 125 µg/mL | 8 µg/mL (≈ 19.6 µM) | > 125 µg/mL | > 125 µg/mL | > 125 µg/mL | > 125 µg/mL | > 125 µg/mL | > 125 µg/mL | MIC [9]: > 125 µg/mL; MIC [12]: > 125 µg/mL
CC1=C(C(=O)O)N2C(=O)[C@@H](NC(=O)C(N)c3ccccc3)[C@H]2CO1 (stereo partly drawn) [BC-L45, 7β-(α-amino-α-phenylacetamido)-3-methyl-Δ^3 -O-2-isocephem-4-carboxylic acid] | 8 µg/mL (≈ 24.1 µM) | 8 µg/mL (≈ 24.1 µM) |  | > 125 µg/mL | < 0.25 µg/mL |  |  | 63 µg/mL (≈ 190 µM) |  | 4 µg/mL (≈ 12.1 µM) | 4 µg/mL (≈ 12.1 µM) | < 0.25 µg/mL |  | 8 µg/mL (≈ 24.1 µM) | 125 µg/mL (≈ 377 µM) | 125 µg/mL (≈ 377 µM) | 8 µg/mL (≈ 24.1 µM) | 32 µg/mL (≈ 96.6 µM) |  | > 125 µg/mL | concentration at 0.5 h [19]: 19400 ng/mL; concentration at 1 h [19]: 15700 ng/mL; concentration at 2 h [19]: 7300 ng/mL; concentration at 3.5 h [19]: 2900 ng/mL; MIC [2, 26]: 1 µg/mL (≈ 3.02 µM); MIC ([7]; read-out: M.I.C.): 63 µg/mL (≈ 190 µM); MIC [8, 23]: 4 µg/mL (≈ 12.1 µM); MIC [10, 23]: 4 µg/mL (≈ 12.1 µM); MIC [17, 27]: 63 µg/mL (≈ 190 µM)
O=C(COc1ccccc1)NC1C(=O)N2C(C(=O)O)=C(CCc3ccccc3)OCC12 (stereo not drawn) [BC-L54, 7β-phenoxyacetamido-3-phenethyl-Δ^3 -O-2-isocephem-4-carboxylic acid] | > 125 µg/mL |  | 0.06 µg/mL (≈ 0.142 µM) | > 125 µg/mL | 0.03 µg/mL (≈ 0.071 µM) | 125 µg/mL (≈ 296 µM) | > 125 µg/mL |  | > 125 µg/mL | 0.5 µg/mL (≈ 1.18 µM) |  | 0.03 µg/mL (≈ 0.071 µM) | > 125 µg/mL | 8 µg/mL (≈ 18.9 µM) | > 125 µg/mL | > 125 µg/mL | > 125 µg/mL | > 125 µg/mL | > 125 µg/mL | > 125 µg/mL | MIC ([2]; SMITHA9537, +50% serum, at 10^-4 dilution, overnight 37° C., read-out: M.I.C.): 4 µg/mL (≈ 9.47 µM); MIC [9]: > 125 µg/mL
CC1=C(C(=O)O)N2C(=O)[C@@H](NC(=O)[C@H](N)c3ccccc3)[C@H]2SC1 [Cephalexin, cephalexin, reference compound] |  |  |  |  |  |  |  |  |  |  | 2 µg/mL (≈ 5.76 µM) |  |  |  |  | 125 µg/mL (≈ 360 µM) |  | 32 µg/mL (≈ 92.1 µM) |  |  | MIC ([7]; read-out: M.I.C.): 63 µg/mL (≈ 181 µM); MIC [10, 23]: 1 µg/mL (≈ 2.88 µM); MIC [17, 27]: 4 µg/mL (≈ 11.5 µM); MIC ([17]; BX16332A9606, at 10^-3 dil'n, read-out: M.I.C.): 4 µg/mL (≈ 11.5 µM); M.I.C. ([17]; at 10^-2 dil'n): 8 meg./ml.; M.I.C. ([17]; at 10^-3 dil'n): 2 meg./ml.
